In this test the target is T1, recombinant full-length human prolyl endopeptidase (PREP) (Homo sapiens, UniProt P48147).
T1 construct: To recombinant full-length human prolyl endopeptidase (PREP, R&D-Systems, 4308-SE); purchased R&D-Systems 4308-SE
T1 sequence (P48147 1-710): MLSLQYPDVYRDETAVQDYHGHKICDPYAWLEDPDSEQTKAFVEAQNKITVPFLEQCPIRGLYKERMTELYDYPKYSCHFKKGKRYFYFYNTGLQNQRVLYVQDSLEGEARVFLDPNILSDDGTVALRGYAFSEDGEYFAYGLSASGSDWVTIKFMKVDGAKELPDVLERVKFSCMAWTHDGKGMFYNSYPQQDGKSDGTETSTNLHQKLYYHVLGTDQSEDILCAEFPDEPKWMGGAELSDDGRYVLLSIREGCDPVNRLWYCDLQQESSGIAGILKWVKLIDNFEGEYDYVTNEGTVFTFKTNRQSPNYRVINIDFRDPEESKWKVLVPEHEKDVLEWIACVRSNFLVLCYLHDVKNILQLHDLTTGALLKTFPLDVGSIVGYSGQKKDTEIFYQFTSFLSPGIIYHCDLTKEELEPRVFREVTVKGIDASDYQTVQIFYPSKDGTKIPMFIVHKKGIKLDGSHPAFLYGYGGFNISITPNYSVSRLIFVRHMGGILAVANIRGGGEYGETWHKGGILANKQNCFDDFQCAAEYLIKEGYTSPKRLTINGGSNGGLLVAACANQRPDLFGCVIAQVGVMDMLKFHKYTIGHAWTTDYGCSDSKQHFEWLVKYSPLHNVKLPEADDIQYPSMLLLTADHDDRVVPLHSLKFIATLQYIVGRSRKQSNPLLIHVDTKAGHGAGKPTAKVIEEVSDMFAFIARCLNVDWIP
Put plainly: Biochemical human prolyl endopeptidase (PREP) assay with fluorescently labelled substrate. The note with it: substrate Z-Gly-Pro-AMC 50 μM, 32° C., 60 min; some as mean values from multiple independent determinations. The gist of the method: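 Initial rates of fluorescence increase from 50 μM Z-Gly-Pro-AMC cleavage (ex 360/em 465 nm, 60 min, 32° C) give percent PREP activity versus no-compound control, and IC50 is interpolated. Enzyme used at 0.4 nM (final, example) in Tris pH 7.5 with EDTA, GSH, BSA and Brij-35; compounds span 1 nM to 30 μM.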
Regarding `O=C(C1CC(C(F)(F)F)Cc2nn(Cc3ccc(C(F)(F)F)nc3)c(=O)n21)N1CC[C@H](F)C1` (mixture of isomers) [Example 236, (5RS,7RS)-5-{[(3S)-3-Fluoropyrrolidin-1-yl]carbonyl}-7-(trifluoromethyl)-2-{[6-(trifluoromethyl)pyridin-3-yl]methyl}-5,6,7,8-tetrahydro[1,2,4]triazolo[4,3-a]pyridin-3(2H)-one], the IC50 was determined as 1.4 nM.
Turning to `O=C(C1CC(C(F)(F)F)Cc2nn(Cc3ccc(Cl)nc3)c(=O)n21)N1CC[C@H](F)C1` (mixture of isomers) [Example 241, (5RS,7RS)-2-[(6-Chloropyridin-3-yl)methyl]-5-{[(3S)-3-fluoropyrrolidin-1-yl]carbonyl}-7-(trifluoromethyl)-5,6,7,8-tetrahydro[1,2,4]triazolo[4,3-a]pyridin-3(2H)-one], the IC50 is 5.8 nM.
In the case of `O=C(C1CC(C(F)(F)F)Cc2nn(Cc3ccc(Cl)nc3)c(=O)n21)N1CC[C@H](F)C1` (mixture of isomers) [Example 242, (5RS,7RS)-2-[(6-Chloropyridin-3-yl)methyl]-5-{[(3S)-3-fluoropyrrolidin-1-yl]carbonyl}-7-(trifluoromethyl)-5,6,7,8-tetrahydro[1,2,4]triazolo[4,3-a]pyridin-3(2H)-one] it was 2 nM; in that of `O=C(C1CC(C(F)(F)F)Cc2nn(Cc3ccc(Cl)nc3)c(=O)n21)N1CC[C@@H](F)C1` (mixture of isomers) [Example 245, (5RS,7RS)-2-[(6-Chloropyridin-3-yl)methyl]-5-{[(3R)-3-fluoropyrrolidin-1-yl]carbonyl}-7-(trifluoromethyl)-5,6,7,8-tetrahydro[1,2,4]triazolo[4,3-a]pyridin-3(2H)-one], 6.9 nM; in that of `O=C(C1CC(C(F)(F)F)Cc2nn(Cc3ccnc(C(F)(F)F)c3F)c(=O)n21)N1CCC(F)(F)C1` (racemic) [Example 251, (5RS,7RS)-5-[(3,3-Difluoropyrrolidin-1-yl)carbonyl]-2-{[3-fluoro-2-(trifluoromethyl)pyridin-4-yl]methyl}-7-(trifluoromethyl)-5,6,7,8-tetrahydro[1,2,4]triazolo[4,3-a]pyridin-3(2H)-one], 3.4 nM.
In the case of `O=C(C1CC(C(F)(F)F)Cc2nn(Cc3ccnc(C(F)(F)F)c3F)c(=O)n21)N1CC[C@H](F)C1` (mixture of isomers) [Example 256, (5RS,7RS)-5-{[(3S)-3-Fluoropyrrolidin-1-yl]carbonyl}-2-{[3-fluoro-2-(trifluoromethyl)pyridin-4-yl]methyl}-7-(trifluoromethyl)-5,6,7,8-tetrahydro[1,2,4]triazolo[4,3-a]pyridin-3(2H)-one] it was 1.7 nM.
In the case of `O=C(C1CC(C(F)(F)F)Cc2nn(Cc3ncc(Cl)cc3F)c(=O)n21)N1CC[C@H](F)C1` (mixture of isomers) [Example 263, (5RS,7RS)-2-[(5-Chloro-3-fluoropyridin-3-yl)methyl]-5-{[(3S)-3-fluoropyrrolidin-1-yl]carbonyl}-7-(trifluoromethyl)-5,6,7,8-tetrahydro[1,2,4]triazolo[4,3-a]pyridin-3(2H)-one] it was 2.8 nM.
With `O=C(C1CC(C(F)(F)F)Cc2nn(Cc3ncc(Cl)cc3F)c(=O)n21)N1CC[C@H](F)C1` (mixture of isomers) [Example 264, (5RS,7RS)-2-[(5-Chloro-3-fluoropyridin-3-yl)methyl]-5-{[(3S)-3-fluoropyrrolidin-1-yl]carbonyl}-7-(trifluoromethyl)-5,6,7,8-tetrahydro[1,2,4]triazolo[4,3-a]pyridin-3(2H)-one], the IC50 was 2.55 nM.
In the case of `O=C(C1CC(C(F)(F)F)Cc2nn(Cc3ncc(Cl)cc3F)c(=O)n21)N1C[C@@H](F)[C@@H](F)C1` (mixture of isomers) [Example 266, (5RS,7RS)-2-[(5-Chloro-3-fluoropyridin-3-yl)methyl]-5-{[(3R,4S)-3,4-difluoropyrrolidin-1-yl]carbonyl}-7-(trifluoromethyl)-5,6,7,8-tetrahydro[1,2,4]triazolo[4,3-a]pyridin-3(2H)-one] it was 5.1 nM; in that of `O=C(C1CCC(C(F)(F)F)c2nn(Cc3ccc(C(F)(F)F)nc3)c(=O)n21)N1C[C@@H](F)[C@@H](F)C1` (mixture of isomers) [Example 270, (5RS,8RS)-5-{[(3R,4S)-3,4-Difluoropyrrolidin-1-yl]carbonyl}-8-(trifluoromethyl)-2-{[6-(trifluoromethyl)pyridin-3-yl]methyl}-5,6,7,8-tetrahydro[1,2,4]triazolo[4,3-a]pyridin-3(2H)-one], 2 nM.
The figure for `O=C(C1CCC(C(F)(F)F)c2nn(Cc3ccc(C(F)(F)F)nc3)c(=O)n21)N1CC[C@H](F)C1` (mixture of isomers) [Example 271, (5RS,8RS)-5-{[(3S)-3-Fluoropyrrolidin-1-yl]carbonyl}-8-(trifluoromethyl)-2-{[6-(trifluoromethyl)pyridin-3-yl]methyl}-5,6,7,8-tetrahydro[1,2,4]triazolo[4,3-a]pyridin-3(2H)-one] is 1.1 nM; for `O=C(C1CCC(C(F)(F)F)c2nn(Cc3ncccc3F)c(=O)n21)N1CC[C@H](F)C1` (mixture of isomers) [Example 273, (5RS,8RS)-2-[(3-Fluoropyridin-2-yl)methyl]-5-{[(3S)-3-fluoropyrrolidin-1-yl]carbonyl}-8-(trifluoromethyl)-5,6,7,8-tetrahydro[1,2,4]triazolo[4,3-a]pyridin-3(2H)-one] it is 7.6 nM; for `O=C(C1CCC(C(F)(F)F)c2nn(Cc3ncccc3F)c(=O)n21)N1C[C@@H](F)[C@@H](F)C1` (mixture of isomers) [Example 274, (5RS,8RS)-5-{[(3R,4S)-3,4-Difluoropyrrolidin-1-yl]carbonyl}-2-[(3-fluoropyridin-2-yl)methyl]-8-(trifluoromethyl)-5,6,7,8-tetrahydro[1,2,4]triazolo[4,3-a]pyridin-3(2H)-one] it is 5.9 nM.
The figure for `O=C(C1C(C(F)(F)F)CCc2nn(Cc3ccnc(C(F)(F)F)c3F)c(=O)n21)N1CC[C@H](F)C1` (mixture of isomers) [Example 280, (5RS,6RS)-5-{[(3S)-3-Fluoropyrrolidin-1-yl]carbonyl}-2-{[3-fluoro-2-(trifluoromethyl)pyridin-4-yl]methyl}-6-(trifluoromethyl)-5,6,7,8-tetrahydro[1,2,4]triazolo[4,3-a]pyridin-3(2H)-one] is 3.8 nM.
In the case of `O=C(C1C(C(F)(F)F)CCc2nn(Cc3ncc(Cl)cc3Cl)c(=O)n21)N1CC[C@H](F)C1` (mixture of isomers) [Example 282, (5RS,6RS)-2-[(3,5-Dichloropyridin-2-yl)methyl]-5-{[(3S)-3-fluoropyrrolidin-1-yl]carbonyl}-6-(trifluoromethyl)-5,6,7,8-tetrahydro[1,2,4]triazolo[4,3-a]pyridin-3(2H)-one], the 50% inhibitory concentration (IC50) amounted to 15 nM.
Consider `O=C(C1C(C(F)(F)F)CCc2nn(Cc3ccc(C(F)(F)F)nc3)c(=O)n21)N1CC[C@H](F)C1` (mixture of isomers) [Example 284, (5RS,6RS)-5-{[(3S)-3-Fluoropyrrolidin-1-yl]carbonyl}-6-(trifluoromethyl)-2-{[6-(trifluoromethyl)pyridin-3-yl]methyl}-5,6,7,8-tetrahydro[1,2,4]triazolo[4,3-a]pyridin-3(2H)-one], for which the IC50 was determined as 3 nM.
The figure for `O=C(C1C(C(F)(F)F)CCc2nn(Cc3ncc(Cl)cc3Cl)c(=O)n21)N1C[C@@H](F)[C@@H](F)C1` (mixture of isomers) [Example 287, (5RS,6RS)-2-[(3,5-Dichloropyridin-2-yl)methyl]-5-{[(3R,4S)-3,4-difluoropyrrolidin-1-yl]carbonyl}-6-(trifluoromethyl)-5,6,7,8-tetrahydro[1,2,4]triazolo[4,3-a]pyridin-3(2H)-one] is 23 nM; for `O=C(C1C(C(F)(F)F)CCc2nn(Cc3ncc(Cl)cc3Cl)c(=O)n21)N1CCC(F)(F)C1` (racemic) [Example 289, (5RS,6RS)-2-[(3,5-Dichloropyridin-2-yl)methyl]-5-[(3,3-difluoropyrrolidin-1-yl)carbonyl]-6-(trifluoromethyl)-5,6,7,8-tetrahydro[1,2,4]triazolo[4,3-a]pyridin-3(2H)-one] it is 117 nM.
In the case of `O=C(C1C(C(F)(F)F)CCc2nn(Cc3ncc(Cl)cc3F)c(=O)n21)N1C[C@@H](F)[C@@H](F)C1` (mixture of isomers) [Example 291, (5RS,6RS)-2-[(5-Chloro-3-fluoropyridin-2-yl)methyl]-5-{[(3R,4S)-3,4-difluoropyrrolidin-1-yl]carbonyl}-6-(trifluoromethyl)-5,6,7,8-tetrahydro[1,2,4]triazolo[4,3-a]pyridin-3(2H)-one] it was 96.5 nM; in that of `O=C(C1C(C(F)(F)F)CCc2nn(Cc3ncc(Cl)cc3F)c(=O)n21)N1CC[C@H](F)C1` (mixture of isomers) [Example 294, (5RS,6RS)-2-[(5-Chloro-3-fluoropyridin-2-yl)methyl]-5-{[(3S)-3-fluoropyrrolidin-1-yl]carbonyl}-6-(trifluoromethyl)-5,6,7,8-tetrahydro[1,2,4]triazolo[4,3-a]pyridin-3(2H)-one], 20 nM.

What is called IC50 is the point on the concentration scale where inhibition reaches its midpoint.

Values taken from patent US10722501B2 (BAYER AKTIENGESELLSCHAFT, priority 2016, dated 2020).
